Assay results as given in patent US20070027130A1, “Tricyclic 6-alkylidene-penem beta-lactamase inhibitors and beta-lactam antibiotic combination: a broad spectrum antibiotic” (priority 2005, published 2007).

Assays:
Experiment in all cases: β-Lactamase inhibition, nitrocefin spectrophotometric assay
[1] = biological target: class A β-lactamase TEM-1 (Escherichia coli, UniProt P62593); assay type: biochemical, E. coli; conditions: nitrocefin 50 μg/ml; 10 min preincubation at 25° C.; pH 7.0
[2] = biological target: class B enzyme CcrA (Bacteroides fragilis, UniProt P25910); assay type: biochemical; conditions: nitrocefin 50 μg/ml; 10 min preincubation at 25° C.; pH 7.0; read-out: IC50 Class-B Ccr
[3] = biological target: class C enzyme AmpC (Enterobacter cloacae, UniProt P05364); assay type: biochemical
[4] = biological target: class A β-lactamase Imi-1 (Enterobacter cloacae, UniProt Q46991)
Chain of class A β-lactamase Imi-1 (Q46991 entry or part of it): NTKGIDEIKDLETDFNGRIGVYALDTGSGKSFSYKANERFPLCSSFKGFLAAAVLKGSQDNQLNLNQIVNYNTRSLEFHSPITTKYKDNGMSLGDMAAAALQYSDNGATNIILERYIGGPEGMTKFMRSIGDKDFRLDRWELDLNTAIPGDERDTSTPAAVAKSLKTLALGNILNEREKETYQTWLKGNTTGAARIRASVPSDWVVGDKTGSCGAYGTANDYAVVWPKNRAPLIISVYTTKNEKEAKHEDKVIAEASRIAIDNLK

Chain of class B enzyme CcrA (P25910 19-249): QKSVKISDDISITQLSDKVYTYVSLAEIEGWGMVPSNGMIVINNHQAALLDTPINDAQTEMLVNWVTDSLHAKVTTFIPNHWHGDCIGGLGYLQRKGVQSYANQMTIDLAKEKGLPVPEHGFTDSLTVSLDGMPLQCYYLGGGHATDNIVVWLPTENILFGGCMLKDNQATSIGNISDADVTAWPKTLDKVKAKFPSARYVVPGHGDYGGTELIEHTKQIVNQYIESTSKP
Chain of class A β-lactamase TEM-1 (P62593 24-286 limits assumed): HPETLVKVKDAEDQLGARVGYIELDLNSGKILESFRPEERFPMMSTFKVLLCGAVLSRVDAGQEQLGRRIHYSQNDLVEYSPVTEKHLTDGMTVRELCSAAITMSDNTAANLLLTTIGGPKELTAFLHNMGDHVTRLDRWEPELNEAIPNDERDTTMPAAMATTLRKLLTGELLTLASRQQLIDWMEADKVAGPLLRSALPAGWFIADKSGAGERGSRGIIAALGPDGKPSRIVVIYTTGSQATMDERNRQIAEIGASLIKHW
Chain of class C enzyme AmpC (P05364 21-381): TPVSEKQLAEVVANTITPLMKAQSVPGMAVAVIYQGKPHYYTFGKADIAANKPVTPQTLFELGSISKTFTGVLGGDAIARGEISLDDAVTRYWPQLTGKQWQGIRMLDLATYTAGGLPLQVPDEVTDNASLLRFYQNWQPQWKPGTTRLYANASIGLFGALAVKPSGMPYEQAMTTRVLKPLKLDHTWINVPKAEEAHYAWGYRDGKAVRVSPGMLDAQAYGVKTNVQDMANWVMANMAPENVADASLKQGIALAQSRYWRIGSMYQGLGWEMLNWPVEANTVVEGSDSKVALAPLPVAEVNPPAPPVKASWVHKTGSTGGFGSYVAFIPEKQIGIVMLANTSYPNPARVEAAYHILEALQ

SMILES: O=C(O)C1=CS[C@@H]2/C(=C\c3cn4c5c(sc4n3)CCC5)C(=O)N12 [Compound 1, (5R),(6Z)-6-(6,7-dihydro-5H-cyclopenta[d]imidazo[2,1-b][1,3]thiazol-2-ylmethylene)-7-oxo-4-thia-1-azabicyclo[3.2.0]hept-2-ene-2-carboxylic acid]
- IC50 [1]: 1.4 nM
- IC50 [2]: 240 nM
- IC50 [3]: 2.4 nM

SMILES: O=C(O)C1=CS[C@@H]2/C(=C\c3cn4c5c(sc4n3)COCC5)C(=O)N12 [Compound 2, (5R),(6Z)-6-(5,8-dihydro-6H-imidazo[2,1-b]pyrano[4,3-d][1,3]thiazol-2-ylmethylene)-7-oxo-4-thia-1-azabicyclo[3.2.0]hept-2-ene-2-carboxylic acid]
- IC50 [1]: 2.8 nM
- IC50 [4]: 100 nM
- IC50 [2]: 200 nM
- IC50 [3]: 1.5 nM
